The values below come from ChEMBL document CHEMBL2086231, “Novel pleuromutilin derivatives as antibacterial agents: synthesis, biological evaluation and molecular docking studies” (2012).

≈ marks a conversion by molar mass, not a printed value.

What all share (format): functional
Experiment [1] concerns Staphylococcus aureus. As to the kind of experiment: Antibacterial activity against methicillin-sensitive Staphylococcus aureus isolate cpu0211 after 18 to 20 hrs by agar dilution method.
The subject of experiment [2] is Staphylococcus aureus. Kind of experiment: Antibacterial activity against methicillin-sensitive Staphylococcus aureus isolate cpu0587 after 18 to 20 hrs by agar dilution method. Background: In agar dilution the substance is mixed into plates at graded concentrations.
Experiment [3] concerns Staphylococcus aureus. Kind of experiment: Antibacterial activity against methicillin-sensitive Staphylococcus aureus isolate cpu1044 after 18 to 20 hrs by agar dilution method.
For experiment [4], the system named is Staphylococcus aureus. As to the kind of experiment: Antibacterial activity against methicillin-sensitive Staphylococcus aureus isolate cpu1344 after 18 to 20 hrs by agar dilution method.
In experiment [5] the test system is Staphylococcus aureus. Kind of experiment: Antibacterial activity against methicillin-resistant Staphylococcus aureus isolate cpu0446 after 18 to 20 hrs by agar dilution method.
Experiment [6] relates to Staphylococcus aureus. As to the kind of experiment: Antibacterial activity against methicillin-resistant Staphylococcus aureus isolate cpu0887 after 18 to 20 hrs by agar dilution method.
The test system of experiment [7] is Staphylococcus aureus. As to the kind of experiment: Antibacterial activity against methicillin-resistant Staphylococcus aureus isolate cpu1098 after 18 to 20 hrs by agar dilution method.
Experiment [8] relates to Staphylococcus aureus. As to the kind of experiment: Antibacterial activity against methicillin-resistant Staphylococcus aureus isolate cpu3256 after 18 to 20 hrs by agar dilution method.
The test system of experiment [9] is Staphylococcus epidermidis. Kind of experiment: Antibacterial activity against methicillin-sensitive Staphylococcus epidermidis isolate cpu0315 after 18 to 20 hrs by agar dilution method.
For experiment [10], the system named is Staphylococcus epidermidis. Kind of experiment: Antibacterial activity against methicillin-sensitive Staphylococcus epidermidis isolate cpu0347 after 18 to 20 hrs by agar dilution method.
Experiment [11] deals with Staphylococcus epidermidis. Kind of experiment: Antibacterial activity against methicillin-sensitive Staphylococcus epidermidis isolate cpu2089 after 18 to 20 hrs by agar dilution method.
For experiment [12], the system named is Staphylococcus epidermidis. As to the kind of experiment: Antibacterial activity against methicillin-sensitive Staphylococcus epidermidis isolate cpu1561 after 18 to 20 hrs by agar dilution method.
Experiment [13] relates to Staphylococcus epidermidis. As to the kind of experiment: Antibacterial activity against methicillin-resistant Staphylococcus epidermidis isolate cpu2623 after 18 to 20 hrs by agar dilution method.
Experiment [14] relates to Staphylococcus epidermidis. Kind of experiment: Antibacterial activity against methicillin-resistant Staphylococcus epidermidis isolate cpu3889 after 18 to 20 hrs by agar dilution method.
Experiment [15] relates to Staphylococcus epidermidis. As to the kind of experiment: Antibacterial activity against methicillin-resistant Staphylococcus epidermidis isolate cpu3569 after 18 to 20 hrs by agar dilution method.
The subject of experiment [16] is Staphylococcus epidermidis. Kind of experiment: Antibacterial activity against methicillin-resistant Staphylococcus epidermidis isolate cpu2736 after 18 to 20 hrs by agar dilution method.
The test system of experiment [17] is Mycoplasma. Kind of experiment: Antimicrobial activity against Mycoplasma by serial two fold dilution assay.

For orientation: MIC means the least concentration at which growth counts as inhibited. Higher therefore signals weaker potency. Regarding `C=C[C@]1(C)C[C@@H](OC(=O)CSCCN(CC)CC)[C@]2(C)[C@H](C)CC[C@]3(CCC(=O)[C@H]32)[C@@H](C)[C@@H]1O` [TIAMULIN], the minimum inhibitory concentration (MIC) in [1] was 2 µg/mL (≈ 4.05 µM); in [2], 8 µg/mL (≈ 16.2 µM); in experiment [3], 8 µg/mL (≈ 16.2 µM); in [4] it was 2 µg/mL (≈ 4.05 µM); in experiment [5], 2 µg/mL (≈ 4.05 µM); in experiment [6], 0.5 µg/mL (≈ 1.01 µM). The MIC was 2 µg/mL (≈ 4.05 µM) in experiment [7]; 2 µg/mL (≈ 4.05 µM) in experiment [8]; 0.0625 µg/mL (≈ 0.127 µM) in experiment [9]; 0.5 µg/mL (≈ 1.01 µM) in experiment [10]; 0.5 µg/mL (≈ 1.01 µM) in experiment [11]; 0.0625 µg/mL (≈ 0.127 µM) in [12]. The MIC in experiment [13] was 1 µg/mL (≈ 2.03 µM); in [14], 1 µg/mL (≈ 2.03 µM); in [15], 0.25 µg/mL (≈ 0.506 µM); in experiment [16] it was 0.0625 µg/mL (≈ 0.127 µM); in [17] it was less than 1 µg/mL.
